Test results from patent publication US20240148821A1, “PHARMACEUTICAL USE OF CYCLIC PEPTIDE COMPOUND” (CHUGAI SEIYAKU KABUSHIKI KAISHA, priority 2021, published 2024).
Numbered stars: 1 amine (or outer) side, 2 acyl side, 3 side chain; on linkers, the order of the positions; unused ones are H or OH. Bridge positions count the residues as written; N and C are the ends. Square brackets hold non-standard residues; d marks the D form. Peptide text beside a SMILES is read from it. * marks the point of attachment. hPhe(3-Cl-4-CF3) = N[C@@H](CCc1ccc(C(F)(F)F)c(Cl)c1)C(=O)O; hPhe(3-F,4-CF3) = N[C@@H](CCc1ccc(C(F)(F)F)c(F)c1)C(=O)O; NEtPhe(4-CF3) = CCN[C@@H](Cc1ccc(C(F)(F)F)cc1)C(=O)O; hPhe(4-CF3) = N[C@@H](CCc1ccc(C(F)(F)F)cc1)C(=O)O; NEtPhe(4-Me) = CCN[C@@H](Cc1ccc(C)cc1)C(=O)O; NMePhe(4-Cl) = CN[C@@H](Cc1ccc(Cl)cc1)C(=O)O; hPhe(4-Cl) = N[C@@H](CCc1ccc(Cl)cc1)C(=O)O; NMedβ3hAla = C[C@H](CC(=O)[*:2])N(C)[*:1]; NMeAla(cPent) = CN[C@@H](CC1CCCC1)C(=O)O; Phe(3-Cl) = N[C@@H](Cc1cccc(Cl)c1)C(=O)O; NMeGly(cPent) = CN[C@H](C(=O)O)C1CCCC1; NMeCha = CN[C@@H](CC1CCCCC1)C(=O)O; Hyp = O=C(O)[C@@H]1C[C@@H](O)CN1; NMeChg = CN[C@H](C(=O)O)C1CCCCC1; NMeF = CN[C@@H](Cc1ccccc1)C(=O)O; NMeI = CC[C@H](C)[C@H](NC)C(=O)O; NMeT = CN[C@H](C(=O)O)[C@@H](C)O; NMeD = CN[C@@H](CC(=O)O)C(=O)O; NMeL = CN[C@@H](CC(C)C)C(=O)O; NMeV = CN[C@H](C(=O)O)C(C)C; Azetidin(1-yl) = C1CN(*)C1; NMeS = CN[C@@H](CO)C(=O)O; NMeA = CN[C@@H](C)C(=O)O; Piperidide = C1CCN(*)CC1; Pyrrolidide = C1CCN(*)C1; Ac5c = NC1(C(=O)O)CCCC1; Aze = O=C(O)[C@@H]1CCN1; Ac4c = NC1(C(=O)O)CCC1; Isopentyl = CC(C)CC*; βAla = NCCC(=O)O; Sar = CNCC(=O)O

Target: protein-protein interaction between Kras and SOS1 (biotin-tagged human Kras loaded with GDP, His-tagged human SOS1) (Homo sapiens (Human), UniProt P01116, G12D)
Assay: Protein-protein interaction inhibition between Kras and SOS1 (KrasG12D-SOS PPI) using AlphaScreen;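 note: kras produced in E. coli, Ni-coupled donor beads and streptavidin acceptor beads, excitation 680 nm with emission detected at 520–620 nm via singlet oxygen transfer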
Format: biochemical
Details: AlphaScreen; biotin-tagged human Kras loaded with GDP, His-tagged human SOS1; read-out: KRAS G12D-SOS PPI IC50

Going from CC[C@H](C)[C@@H]1NC(=O)[C@H](CC(C)C)N(C)C(=O)C[C@@H](C(=O)N2CCCCC2)N(C)C(=O)[C@H](C(C)C)N(C)C(=O)C2(CCCC2)NC(=O)[C@@H]2CCCN2C(=O)[C@H](CCc2ccc(Cl)cc2)NC(=O)CN(C)C(=O)[C@H](CC2CCCCC2)N(C)C(=O)[C@@H]2CCN2C(=O)CN(C)C1=O [Compound 916] ([NMeL]I[Sar][Aze][NMeCha][Sar][hPhe(4-Cl)]P[Ac5c][NMeV][NMeD]-Piperidide; lactam N-11) to CC[C@H](C)[C@@H]1NC(=O)[C@H](CC(C)C)N(C)C(=O)C[C@@H](C(=O)N2CCCCC2)N(C)C(=O)[C@H](C(C)C)N(C)C(=O)C2(CCCC2)NC(=O)[C@@H]2CCCN2C(=O)[C@H](CCc2ccc(C(F)(F)F)c(Cl)c2)NC(=O)CN(C)C(=O)[C@H]([C@@H](C)OC)N(C)C(=O)[C@@H]2CCN2C(=O)[C@H](C)N(C)C1=O [Compound 929] ([NMeL]I[NMeA][Aze][NMeT](Me)[Sar][hPhe(3-Cl-4-CF3)]P[Ac5c][NMeV][NMeD]-Piperidide; lactam N-11), the IC50 falls from 42 nM to 4.1 nM (10-fold). The second is the more potent here.

CC[C@H](C)[C@@H]1NC(=O)[C@H](CC(C)C)N(C)C(=O)C[C@@H](C(=O)N2CCCC2)N(C)C(=O)[C@H](C2CCCC2)N(C)C(=O)C2(CCCC2)NC(=O)[C@@H]2CCCN2C(=O)[C@H](CCc2ccc(C(F)(F)F)c(F)c2)NC(=O)CN(C)C(=O)[C@H](C2CCCC2)N(C)C(=O)[C@@H]2CCN2C(=O)[C@H](C)N(C)C1=O [Compound 918] ([NMeL]I[NMeA][Aze][NMeGly(cPent)][Sar][hPhe(3-F,4-CF3)]P[Ac5c][NMeGly(cPent)][NMeD]-Pyrrolidide; lactam N-11) and CC[C@H](C)[C@@H]1NC(=O)[C@H](CC2CCCC2)N(C)C(=O)C[C@@H](C(=O)N2CCC2)N(C)C(=O)[C@H](C2CCCC2)N(C)C(=O)C2(CCCC2)NC(=O)[C@@H]2CCCN2C(=O)[C@H](CCc2ccc(C(F)(F)F)c(Cl)c2)NC(=O)CN(C)C(=O)[C@H](CC2CCCCC2)N(C)C(=O)[C@@H]2CCN2C(=O)[C@H](C)NC1=O [Compound 921] ([NMeAla(cPent)]IA[Aze][NMeCha][Sar][hPhe(3-Cl-4-CF3)]P[Ac5c][NMeGly(cPent)][NMeD]-{Azetidin(1-yl)}; lactam N-11) are within 1.5-fold of each other in IC50: 0.89 nM for the first, 1.1 nM for the second.

Compared with CC[C@H](C)[C@@H]1NC(=O)[C@H](C(C)C)N(C)C(=O)CCNC(=O)[C@H](CC(C)C)N(C)C(=O)C2(CCCC2)NC(=O)[C@H](CC(C)C)N(C)C(=O)[C@H](CCc2ccc(C(F)(F)F)cc2)NC(=O)CN(C)C(=O)[C@H](Cc2ccc(Cl)cc2)N(C)C(=O)CN(C)C(=O)CN(C)C1=O [Compound 923] (cyclo([Ac5c][NMeL][βAla][NMeV]I[Sar][Sar][NMePhe(4-Cl)][Sar][hPhe(4-CF3)][NMeL])), CC[C@H](C)[C@@H]1NC(=O)[C@H](C)N(C)C(=O)C[C@@H](C)N(C)C(=O)[C@H](CC(C)C)N(C)C(=O)[C@H](Cc2ccccc2)N(C)C(=O)[C@H](CC(C)C)NC(=O)[C@H](CCc2ccc(C(F)(F)F)cc2)NC(=O)CN(C)C(=O)[C@H](Cc2ccc(Cl)cc2)N(C)C(=O)CN(C)C(=O)CN(C)C1=O [Compound 927] (cyclo(I[Sar][Sar][NMePhe(4-Cl)][Sar][hPhe(4-CF3)]L[NMeF][NMeL][NMedβ3hAla][NMeA])) is 10-fold lower in IC50: 230 nM for the first, 23 nM for the second.

First: CCO[C@@H]1C[C@H]2C(=O)N(C)[C@@H](COCCC(C)C)C(=O)N(C)[C@@H](CC(C)C)C(=O)N[C@H](C(=O)N3CCCC3)CC(=O)N(C)[C@@H](C)C(=O)N[C@@H]([C@@H](C)CC)C(=O)N(C)CC(=O)N(C)CC(=O)N(C)[C@@H](Cc3ccc(Cl)cc3)C(=O)N(C)CC(=O)N[C@@H](Cc3cccc(Cl)c3)C(=O)N2C1 [Compound 925] ([NMeA]I[Sar][Sar][NMePhe(4-Cl)][Sar][Phe(3-Cl)][Hyp](Et)[NMeS](Isopentyl)[NMeL]D-Pyrrolidide; lactam N-11)
Second: CCO[C@@H]1C[C@H]2C(=O)NC3(CCCC3)C(=O)N(C)[C@@H]([C@@H](C)CC)C(=O)N(C)[C@H](C)CC(=O)N(C)[C@@H](CC(C)C)C(=O)N[C@@H]([C@@H](C)CC)C(=O)N(C)[C@@H](C)C(=O)N3CC[C@H]3C(=O)N(CC)[C@@H](Cc3ccc(C(F)(F)F)cc3)C(=O)N(C)CC(=O)N[C@@H](CCc3ccc(C(F)(F)F)c(Cl)c3)C(=O)N2C1 [Compound 932] (cyclo([Ac5c][NMeI][NMedβ3hAla][NMeL]I[NMeA][Aze][NEtPhe(4-CF3)][Sar][hPhe(3-Cl-4-CF3)][Hyp](Et)))
The IC50 of the first is 67-fold higher: 360 nM for the first, 5.4 nM for the second.

CCO[C@@H]1C[C@H]2C(=O)NC3(CCC3)C(=O)N(C)[C@@H](C3CCCCC3)C(=O)N(C)[C@H](C)CC(=O)N(C)[C@@H](CC(C)C)C(=O)N[C@@H]([C@@H](C)CC)C(=O)N(C)[C@@H](C)C(=O)N3CC[C@H]3C(=O)N(CC)[C@@H](Cc3ccc(C)cc3)C(=O)N(C)CC(=O)N[C@@H](CCc3ccc(C(F)(F)F)c(Cl)c3)C(=O)N2C1 [Compound 928] (cyclo([Ac4c][NMeChg][NMedβ3hAla][NMeL]I[NMeA][Aze][NEtPhe(4-Me)][Sar][hPhe(3-Cl-4-CF3)][Hyp](Et))) was tested, and the IC50 was 27 nM.
